Measured values taken from patent US4517197A, “-N-substituted phenyl-5-methoxymethyl-2-oxazolidinones and pharmaceutical compositions containing same” (Delalande S.A., priority 1980, dated 1985).

Columns and labels:
[1] = test system: generalized trembling caused by dl-5-hydroxytryptophane; experiment: Test A: potentiation in mice of generalized trembling caused by intraperitoneal injection of dl-5-hydroxytryptophane; type: in vivo; settings: Mus musculus, po, dl-5-hydroxytryptophane 200 mg/kg intraperitoneal, read-out: Test A ED 50
Method: Test A: potentiation in mice of generalized trembling caused by an intraperitoneal injection (200 mg/kg) of dl-5-hydroxytryptophane, according to the procedure described by Gouret C. and Raynaud G. in J. Pharmacol. (Paris) (1974), 5, 231.

ptosis after reserpine = experiment: Test B: antagonism of ptosis observed an hour after intravenous injection of reserpine in mice; type: in vivo; settings: Mus musculus, po, ptosis an hour after reserpine 2 mg/kg intravenous, read-out: Test B ED 50
Method: Test B: antagonism with respect to ptosis observed an hour after an intravenous injection (2 mg/kg) of reserpine in mice according to the procedure described by Gouret C. and Thomas J. in J. Pharmacol. (Paris), (1973), 4, 401.

Toxicity (mice) = settings: mouse, in vivo, po, read-out: Toxicity (mice) LD 50

Structure (SMILES)	ED50 [1] [mg/kg]	ED50 (ptosis after reserpine) [mg/kg]	LD50 (Toxicity (mice)) [mg/kg]
COCC1CN(c2ccc(OCCC(C)=O)cc2)C(=O)O1 (centres unmarked) [compound 238]	1.9	1.1	> 1000
COCC1CN(c2ccc(COc3cccc(C#N)c3)cc2)C(=O)O1 (centres unmarked) [compound 275]	0.6	0.3	> 1000
COCC1CN(c2ccc(-c3cccc(C#N)c3)cc2)C(=O)O1 (centres unmarked) [compound 284]	1.2	1.3	> 1000
COCC1CN(c2ccc(COc3cccc(Cl)c3)cc2)C(=O)O1 (centres unmarked) [compound 273]	5.9	3.4	> 1000
COCC1CN(c2ccc(CCc3cccc(C#N)c3)cc2)C(=O)O1 (centres unmarked) [compound 272]	0.5	0.4	> 1000
COCC1CN(c2ccc(C#Cc3cccc(C#N)c3)cc2)C(=O)O1 (centres unmarked) [compound 282]	0.3	0.3	> 1000
COCC1CN(c2ccc(CCCCCC#N)cc2)C(=O)O1 (centres unmarked) [compound 289]	0.15	0.2	> 1000
COCC1CN(c2ccc(CC(=O)c3cccc(C#N)c3)cc2)C(=O)O1 (centres unmarked) [compound 270]	0.2	0.2	> 1000
COCC1CN(c2ccc(OCCc3cccc(C#N)c3)cc2)C(=O)O1 (centres unmarked) [compound 267]	1.8	1.3	> 1000
COCC1CN(c2ccc(CCc3cccc(Cl)c3)cc2)C(=O)O1 (centres unmarked) [compound 271]	4.1	3.8	> 1000
Cc1cccc(N2CC(CO)OC2=O)c1 (centres unmarked) [TOLOXATONE, reference compound]	60	50	
COCC1CN(c2ccc(OCCc3cccc(Cl)c3)cc2)C(=O)O1 (centres unmarked) [compound 264]	2.8	3	> 1000
COCC1CN(c2ccc(C#Cc3cccc(Cl)c3)cc2)C(=O)O1 (centres unmarked) [compound 277]	1.2	1.7	> 1000
COCC1CN(c2ccc(CC(=O)c3cccc(Cl)c3)cc2)C(=O)O1 (centres unmarked) [compound 274]	1.2	0.9	> 1000
COCC1CN(c2ccc(C#CC3CCCCC3)cc2)C(=O)O1 (centres unmarked) [compound 281]	1.3	0.6	> 1000
COCC1CN(c2ccc(-c3ccc(Cl)cc3)cc2)C(=O)O1 (centres unmarked) [compound 269]	1.7	1.2	> 1000
